Measurements from patent publication US20240091324A1, “GASTROINTESTINAL HEALTH COMPOSITION” (priority 2019, published 2024).

How the values were obtained:
TNBS colitis [1] = assay: TNBS colitis mouse model with and without prednisolone, change in endoscopic score day 3 to day 11 (Example 12); type: in vivo, C56/BL/6 mice
Description: Colitis was induced in C56/BL/6 mice and 3 days after disease induction daily treatments commenced.
Mice were induced with colitis by administering TNBS in the same manner as example 11. After three days the lesions were scored by endoscopy and the animals treated with i). 150 mg/kg bromelain in water, ii) 150 mg bromelain and rectally administered threonine/sodium butyrate/vitamin D3, iii). 2 mg/kg oral prednisolone or iv). 150 mg bromelain and rectally administered threonine/sodium butyrate/vitamin D3 plus 2 mg/kg oral prednisolone. Endoscopic scores were measured at day 11 and the change in endoscopic score between day 3 and day 11 calculated (FIG. 16).
Groups are i) placebo, ii) 150 mg bromelain in water orally, iii) 150 mg bromelain & 15 mg/kg menthol orally plus GaRP rectally, iv) 150 mg bromelain & 15 mg/kg menthol orally plus GaRP and 2 mg/kg prednisolone rectally, v) 2 mg/kg prednisolone rectally, and vi) GaRP rectally. GaRP is sodium butyrate 185 mg/kg, threonine 280 mg/kg and Vitamin D3 3.84 micrograms per kg. […] The threonine, sodium butyrate and vitamin D3 were formulated and administered as a rectal gavage at the top of the colon to simulate a formulation which releases in the colon; i.e., to achieve administration to the lower intestine.

TNBS colitis [2] = assay: Histological scoring of colitis in colon sections post treatment (Example 14); type: in vivo, C56/BL/6 mice; conditions: TNBS colitis mice, 2 mg/kg prednisolone
Excerpt: Colitis was induced and treated C56/BL/6 mice from examples 11 and 12 were euthanised post treatment and the colons sectioned for histopathological analysis. Each bar represents the mean histopathology score for the treatment groups. Values of the number of animals, means, standard deviations and statistical significance relative to placebo are shown in parentheses.
In this example, the colon was fixed, stained and sectioned before being assessed by microscopy in a blinded manner. Colons were examined not only for active disease but evidence of recovery from disease and scored according to the following criteria. Scoring was performed in triplicate blinded to the scorer with a maximum score of 3 in each of 6 categories.
• Hypervascularization (opening of blood vessels) • Presence of mononuclear cells (architecture also disappear) • Epithelial hyperplasia (elongated crypt and villi) • Epithelial injury (loss of epithelial continuity) • Presence of neutrophils • Lymphoid aggregates (scored 0-2) 0,1-2, >2
Data were collated and analysed by student t test for significance against placebo control.

C[C@]12C=CC(=O)C=C1CC[C@@H]1[C@@H]2[C@@H](O)C[C@@]2(C)[C@H]1CC[C@]2(O)C(=O)CO [prednisolone, Prednisolone]
Mean reduction in endoscopic score (TNBS colitis [1]; TNBS colitis mice, change day 3 to day 11, 2 mg/kg prednisolone): 4.25
mean improvement in endoscopic score at day 11 (TNBS colitis [1]; daily treatment from day 3, bromelain 150 mg/kg, menthol 15 mg/kg, prednisolone 2 mg/kg where present, GaRP rectally): 4.25
Histological score of colitis, Mean (TNBS colitis [2]): 3.5
